Results taken from PubChem BioAssay (NCI).
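Step 1: Grow cells in 96-well plates. Step 2: Expose to compound for 48 hours at 5 concentrations. Step 3: Interpolate endpoints linearly; if unreached, use highest concentration. TGI marks complete inhibition of growth.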

Experiments:
Experiment in all cases: DTP human tumour cell line panel, 48 h
ACHN renal = test system: ACHN renal
RPMI-8226 leukemia = test system: RPMI-8226 leukemia
SK-MEL-28 melanoma = test system: SK-MEL-28 melanoma
HOP-62 NSCLC = test system: HOP-62 NSCLC
NCI/ADR-RES ovarian = test system: NCI/ADR-RES ovarian
LOX IMVI melanoma = test system: LOX IMVI melanoma
OVCAR-3 ovarian = test system: OVCAR-3 ovarian
KM12 colon = test system: KM12 colon
MCF7 breast = test system: MCF7 breast
HCC-2998 colon = test system: HCC-2998 colon
EKVX NSCLC = test system: EKVX NSCLC
SW-620 colon = test system: SW-620 colon
MDA-N = test system: MDA-N
HL-60(TB) leukemia = test system: HL-60(TB) leukemia
HT29 colon = test system: HT29 colon
RXF 393 renal = test system: RXF 393 renal
HS 578T breast = test system: HS 578T breast
K-562 leukemia = test system: K-562 leukemia
A498 renal = test system: A498 renal
U251 CNS = test system: U251 CNS
SNB-75 CNS = test system: SNB-75 CNS
NCI-H23 lung = test system: NCI-H23 lung
M14 melanoma = test system: M14 melanoma
SNB-19 CNS = test system: SNB-19 CNS
SF-539 CNS = test system: SF-539 CNS
CAKI-1 renal = test system: CAKI-1 renal
DU-145 prostate = test system: DU-145 prostate
OVCAR-5 ovarian = test system: OVCAR-5 ovarian
SK-MEL-2 melanoma = test system: SK-MEL-2 melanoma
OVCAR-8 ovarian = test system: OVCAR-8 ovarian
SF-268 CNS = test system: SF-268 CNS
OVCAR-4 ovarian = test system: OVCAR-4 ovarian
COLO 205 colon = test system: COLO 205 colon
HOP-92 NSCLC = test system: HOP-92 NSCLC
HCT-116 colon = test system: HCT-116 colon
TK-10 renal = test system: TK-10 renal
NCI-H460 lung = test system: NCI-H460 lung
BT-549 breast = test system: BT-549 breast
MOLT-4 leukemia = test system: MOLT-4 leukemia
A549 NSCLC = test system: A549 NSCLC
SK-MEL-5 melanoma = test system: SK-MEL-5 melanoma
UACC-62 melanoma = test system: UACC-62 melanoma
UACC-257 melanoma = test system: UACC-257 melanoma
CCRF-CEM leukemia = test system: CCRF-CEM leukemia
NCI-H522 lung = test system: NCI-H522 lung
MALME-3M melanoma = test system: MALME-3M melanoma
MDA-MB-435 = test system: MDA-MB-435
NCI-H226 lung = test system: NCI-H226 lung
SF-295 CNS = test system: SF-295 CNS
T-47D breast = test system: T-47D breast
IGROV1 ovarian = test system: IGROV1 ovarian
SN12C renal = test system: SN12C renal
PC-3 prostate = test system: PC-3 prostate
MDA-MB-231 breast = test system: MDA-MB-231 breast
SK-OV-3 ovarian = test system: SK-OV-3 ovarian
HCT-15 colon = test system: HCT-15 colon
UO-31 renal = test system: UO-31 renal
786-0 renal = test system: 786-0 renal

COc1cc(C(c2c(O)c3ccccc3oc2=O)c2c(O)c3ccccc3oc2=O)ccc1O
TGI (ACHN renal): 40.2 µM | TGI (RPMI-8226 leukemia): > 100 µM | TGI (SK-MEL-28 melanoma): 36.5 µM | TGI (HOP-62 NSCLC): > 100 µM | TGI (NCI/ADR-RES ovarian): > 100 µM | TGI (LOX IMVI melanoma): 65.1 µM | TGI (OVCAR-3 ovarian): 34.6 µM | TGI (KM12 colon): 87.1 µM | TGI (MCF7 breast): 38.2 µM | TGI (HCC-2998 colon): 33.9 µM | TGI (EKVX NSCLC): 80.9 µM | TGI (SW-620 colon): 63.1 µM | TGI (MDA-N): 44.8 µM | TGI (HL-60(TB) leukemia): 57.9 µM | TGI (HT29 colon): 40.8 µM | TGI (RXF 393 renal): 33.7 µM | TGI (HS 578T breast): > 100 µM | TGI (K-562 leukemia): > 100 µM | TGI (A498 renal): > 100 µM | TGI (U251 CNS): 58.4 µM | TGI (SNB-75 CNS): 66.1 µM | TGI (NCI-H23 lung): > 100 µM | TGI (M14 melanoma): 34.7 µM | TGI (SNB-19 CNS): 92 µM | TGI (SF-539 CNS): 53.9 µM | TGI (CAKI-1 renal): 36.5 µM | TGI (DU-145 prostate): 52.6 µM | TGI (OVCAR-5 ovarian): 41.3 µM | TGI (SK-MEL-2 melanoma): 58.5 µM | TGI (OVCAR-8 ovarian): > 100 µM | TGI (SF-268 CNS): 45.4 µM | TGI (OVCAR-4 ovarian): > 100 µM | TGI (COLO 205 colon): 31.7 µM | TGI (HOP-92 NSCLC): 33.8 µM | TGI (HCT-116 colon): > 100 µM | TGI (TK-10 renal): 46.1 µM | TGI (NCI-H460 lung): 44.6 µM | TGI (BT-549 breast): 38.9 µM | TGI (MOLT-4 leukemia): 62.4 µM | TGI (A549 NSCLC): > 100 µM | TGI (SK-MEL-5 melanoma): 30.3 µM | TGI (UACC-62 melanoma): 35.4 µM | TGI (UACC-257 melanoma): 37.1 µM | TGI (CCRF-CEM leukemia): 89.6 µM | TGI (NCI-H522 lung): 43.2 µM | TGI (MALME-3M melanoma): 38 µM | TGI (MDA-MB-435): > 100 µM | TGI (NCI-H226 lung): > 100 µM | TGI (SF-295 CNS): > 100 µM | TGI (T-47D breast): 33.9 µM | TGI (IGROV1 ovarian): 27.2 µM | TGI (SN12C renal): 42 µM | TGI (PC-3 prostate): 94.6 µM | TGI (MDA-MB-231 breast): 35.9 µM | TGI (SK-OV-3 ovarian): > 100 µM | TGI (HCT-15 colon): 36 µM | TGI (UO-31 renal): 65.6 µM | TGI (786-0 renal): 56 µM

CC(C)(C)OC(=O)NCCC1SC2C=CC1C2 (stereo unspecified)
TGI (ACHN renal): > 100 µM | TGI (RPMI-8226 leukemia): > 100 µM | TGI (SK-MEL-28 melanoma): > 100 µM | TGI (HOP-62 NSCLC): > 100 µM | TGI (NCI/ADR-RES ovarian): > 100 µM | TGI (LOX IMVI melanoma): > 100 µM | TGI (OVCAR-3 ovarian): > 100 µM | TGI (KM12 colon): > 100 µM | TGI (MCF7 breast): > 100 µM | TGI (HCC-2998 colon): > 100 µM | TGI (EKVX NSCLC): > 100 µM | TGI (SW-620 colon): > 100 µM | TGI (MDA-N): > 100 µM | TGI (HL-60(TB) leukemia): > 100 µM | TGI (HT29 colon): > 100 µM | TGI (RXF 393 renal): > 100 µM | TGI (HS 578T breast): > 100 µM | TGI (K-562 leukemia): > 100 µM | TGI (A498 renal): > 100 µM | TGI (U251 CNS): > 100 µM | TGI (SNB-75 CNS): > 100 µM | TGI (NCI-H23 lung): > 100 µM | TGI (M14 melanoma): > 100 µM | TGI (SNB-19 CNS): > 100 µM | TGI (SF-539 CNS): > 100 µM | TGI (CAKI-1 renal): > 100 µM | TGI (DU-145 prostate): > 100 µM | TGI (OVCAR-5 ovarian): > 100 µM | TGI (SK-MEL-2 melanoma): > 100 µM | TGI (OVCAR-8 ovarian): > 100 µM | TGI (SF-268 CNS): > 100 µM | TGI (OVCAR-4 ovarian): > 100 µM | TGI (COLO 205 colon): > 100 µM | TGI (HOP-92 NSCLC): > 100 µM | TGI (HCT-116 colon): > 100 µM | TGI (TK-10 renal): > 100 µM | TGI (NCI-H460 lung): > 100 µM | TGI (BT-549 breast): > 100 µM | TGI (MOLT-4 leukemia): > 100 µM | TGI (A549 NSCLC): > 100 µM | TGI (SK-MEL-5 melanoma): > 100 µM | TGI (UACC-62 melanoma): > 100 µM | TGI (UACC-257 melanoma): > 100 µM | TGI (CCRF-CEM leukemia): > 100 µM | TGI (NCI-H522 lung): > 100 µM | TGI (MALME-3M melanoma): > 100 µM | TGI (MDA-MB-435): > 100 µM | TGI (NCI-H226 lung): > 100 µM | TGI (SF-295 CNS): > 100 µM | TGI (T-47D breast): > 100 µM | TGI (IGROV1 ovarian): > 100 µM | TGI (SN12C renal): > 100 µM | TGI (PC-3 prostate): > 100 µM | TGI (MDA-MB-231 breast): > 100 µM | TGI (SK-OV-3 ovarian): > 100 µM | TGI (HCT-15 colon): > 100 µM | TGI (UO-31 renal): > 100 µM | TGI (786-0 renal): > 100 µM
